Test: gradient 5% acetonitrile 3 min, to 50% in 2 min, to 85% in 15 min, held 3 min, 100 µL/min
Conditions: column: Zorbax Extend-C18 2.1 x 50 mm; eluents: water / acetonitrile, 0.1% formic acid
Outline: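 Using water and acetonitrile that each contained 0.1% formic acid, mixtures of ~100 pure standards were separated at 100 μL/min on a Zorbax Extend-C18 column (2.1 × 50 mm, 1.8 μm). The HPLC fed a quadrupole time-of-flight mass spectrometer working in positive and negative ionization mode, with dead and dwell volumes of 40 μL and 900 μL. Data were acquired over 3 months. Retention time was read from computationally picked adduct peaks after manual inspection of each.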

Compared with Cc1ccc(CNC(=O)C2(C)CCCN(C(=O)Nc3ccc(Cl)cc3)C2)cc1 (stereo unspecified), CN(C)C(=O)c1ccc2c(c1)N(CC(=O)NCc1ccc(Cl)cc1)C(=O)CO2 is lower in RP-LC retention time: 1010 s for the first, 707 s for the second.

Going from O=C(N[C@H]1C[C@@H]2C[C@H]1CN2C(=O)Cc1ccc(OC(F)(F)F)cc1)c1ccccc1 to COc1ccc(CC(=O)N2C[C@@H]3C[C@H]2C[C@@H]3NS(C)(=O)=O)cc1, the RP-LC retention time falls from 836 s to 647 s.

First: O=C(CCNc1c(-c2cccc(F)c2)nc2cnccn12)NCc1ccc(F)cc1F
Second: COC(=O)c1c(-c2cccc(F)c2)noc1NCc1ccc(OC)cc1OC
The RP-LC retention time of the first is higher: 776 s for the first, 548 s for the second.

Compared with Cc1ccc(-c2cn(CC(=O)N3CCN(c4cccc(C)c4)CC3)c(=O)o2)cc1, Cc1ccc(-n2c(C)c(C)c3c(=O)n(CC(=O)N4CCc5ccccc54)cnc32)cc1 is higher in RP-LC retention time: 1020 s for the first, 1040 s for the second.

Going from COc1cccc2cc(-c3nnc(NC(=O)c4ccc5ncsc5c4)o3)oc12 to COc1ccccc1-c1nc(C2CC(=O)N(c3ccc(F)cc3)C2)no1 (stereo unspecified), the RP-LC retention time rises from 725 s to 926 s.

Going from Cc1ccc(NS(=O)(=O)c2cc3n(c2)CCN(C)C3=O)cc1F to Cc1ccc(NC(=O)Cn2c(=O)cc(-c3nc(C(C)C)no3)c3ccccc32)cc1F, the RP-LC retention time rises from 716 s to 1080 s.

First: O=C(CCc1cc2ccccc2[nH]c1=O)NCCN1CCCCCC1
Second: CCC(=O)N1CCc2c(C(=O)NC3CCCCCC3)cccc21
The RP-LC retention time of the first is lower: 595 s for the first, 887 s for the second.

Going from Cc1ccc(-c2csc(Nc3ccccc3C)n2)cc1 to Cc1ccc(-c2cc(=O)n3c4ccccc4n(CC(=O)NC4CCCC4)c3n2)cc1, the RP-LC retention time falls from 1240 s to 942 s.

Compared with CC(=O)c1cccc(NC(=O)N2CCc3cc(-c4ccc(C(=O)N5CCOCC5)cc4)ccc32)c1, COc1ccc(OC)c(S(=O)(=O)NCc2ccc3c(c2)CCN3C(=O)c2ccccc2)c1 is lower in RP-LC retention time: 918 s for the first, 896 s for the second.

First: CCOc1ccc(N2CC(CNC(=O)Nc3cc(OC)c(OC)c(OC)c3)CC2=O)cc1 (stereo unspecified)
Second: CCOc1ccc(-c2nc(C3CC(=O)N(c4ccc(F)cc4)C3)no2)cc1OCC (stereo unspecified)
The RP-LC retention time of the first is lower: 668 s for the first, 1050 s for the second.

First: COc1ccc(-c2cc3nn(CC(=O)Nc4cccc(Cl)c4)c(=O)n3c(C)n2)cc1
Second: Cc1cccc(NC(=O)Nc2ccc(-c3cn4ccc(C)nc4n3)cc2)c1
The RP-LC retention time of the first is higher: 979 s for the first, 670 s for the second.

First: CCCn1c(=O)c(C)nc2cc(-c3noc(-c4ccc(Br)o4)n3)ccc21
Second: COc1ccc(-c2noc(C3CC(=O)N(c4ccc5c(c4)OCO5)C3)n2)cc1 (stereo unspecified)
The RP-LC retention time of the first is higher: 1160 s for the first, 881 s for the second.

Compared with Cc1cc(C)c2nc(C)cc(C(=O)NCC(C)C)c2c1, Cc1ccc2c(C(=O)NCCc3cccnc3)cc(NC(=O)C(C)C)cc2n1 is lower in RP-LC retention time: 701 s for the first, 550 s for the second.

Compared with O=C(CCn1cnnn1)N1CCC2(CC1)CC(CC(=O)N1CCOCC1)CCO2 (stereo unspecified), O=C(NCCCN1CCCC1=O)C1CCN(c2cncnc2N2CCOCC2)CC1 is lower in RP-LC retention time: 585 s for the first, 535 s for the second.

First: CC(C)CC(=O)Nc1nc(-c2ccc3c(c2)N(C)C(=O)C(C)O3)cs1 (stereo unspecified)
Second: Cc1csc(-c2cc(S(=O)(=O)NCC(C)c3ccccc3)c(C)s2)n1 (stereo unspecified)
The RP-LC retention time of the first is lower: 921 s for the first, 1110 s for the second.

Going from CN(CC1CCOC1)C(=O)c1cc(Cl)ccc1F (stereo unspecified) to CN(CC1CCOC1)C(=O)Cc1ccc(Cl)cc1 (stereo unspecified), the RP-LC retention time rises from 719 s to 741 s.

Going from O=C(NCC1CCCO1)c1coc(NC(=O)C2CC2)n1 (stereo unspecified) to Cc1ccc(-c2nnc(N3CCC(C(=O)NCc4ccc(C)o4)CC3)o2)cc1, the RP-LC retention time rises from 571 s to 853 s.

First: CN(CC1(C)CCOCC1)C(=O)c1ccc(C#N)cc1
Second: Cn1nc(-c2nnc(-c3ccccc3)o2)c2c1CCN(S(=O)(=O)c1ccc(C#N)cc1)C2
The RP-LC retention time of the first is lower: 716 s for the first, 897 s for the second.

First: CCn1cc2c3c(cccc31)CN(C(=O)Nc1ccc(SC)cc1)CC2
Second: COc1cccc(CNC(=O)CN2CCN(Cc3ccc(F)cc3)C2=O)c1
The RP-LC retention time of the first is higher: 984 s for the first, 769 s for the second.

Going from COc1cc(NC(=O)N2CCCC(Cn3c(C)nc4cccnc43)C2)cc(OC)c1 (stereo unspecified) to CCn1c(=O)c(N2CCC(C(=O)NCCc3c[nH]c4ccc(Cl)cc34)CC2)nc2cccnc21, the RP-LC retention time rises from 639 s to 993 s.

Compared with COc1cc(OC)c(NC(=O)C2CCN(C(=O)c3cc(-c4ccncc4)n[nH]3)CC2)cc1Cl, O=C(Nc1ccc(F)cc1F)C1CCCN(S(=O)(=O)c2c[nH]c(C(=O)N3CCCC3)c2)C1 (stereo unspecified) is higher in RP-LC retention time: 611 s for the first, 792 s for the second.

Compared with COc1ccc(C2(C(=O)N3CCc4nn(C)c(=O)n4CC3)CC2)cc1, CCCC(C)C(=O)N1CCCN(C2=NS(=O)(=O)C(c3ccc(CC)cc3)=C2C)CC1 (stereo unspecified) is higher in RP-LC retention time: 657 s for the first, 935 s for the second.

First: CCCn1cc(C(=O)NCc2ccccc2F)c(S(=O)(=O)N2CCC(C)CC2)n1
Second: CC1=C(c2ccccc2)S(=O)(=O)N=C1N1CCCN(C(=O)Nc2ccccc2F)CC1
The RP-LC retention time of the first is higher: 1090 s for the first, 811 s for the second.

Compared with CCCCN(C)CCNC(=O)c1cc2cc3ccc(OC)cc3nc2o1, CCOC(=O)c1c(C)[nH]c(CCC(=O)NCc2ccc3c(c2)OCO3)c1C is higher in RP-LC retention time: 641 s for the first, 738 s for the second.

Going from CCc1ccccc1NC(=O)N1CC(n2cnnc2-c2ccccc2)C1 to CC1CCCCN1C(=O)CSc1nc(-c2ccccc2)no1 (stereo unspecified), the RP-LC retention time rises from 686 s to 1070 s.

Going from COc1cccc(C(=O)N(CN2CCCC2=O)c2cccc(C(F)(F)F)c2)c1 to O=C(NC1CC1)c1ccc(OCC2CCCN2C(=O)c2ccccc2C(F)(F)F)cc1 (stereo unspecified), the RP-LC retention time rises from 757 s to 832 s.

Compared with CCOC(=O)N1CCN(C(=O)c2cn(CC(O)c3ccccc3)nn2)CC1 (stereo unspecified), CCCn1cc(C(=O)N2CCN(C3CCCCC3)CC2)c2cccnc21 is lower in RP-LC retention time: 634 s for the first, 603 s for the second.

Compared with [C-]#[N+]/C(C(=O)Nc1ccc(C(F)(F)F)cc1)=C(\C)O, COc1ccccc1-c1cc(C(F)(F)F)n2ncc(C(=O)OCCN3CCOCC3)c2n1 is lower in RP-LC retention time: 846 s for the first, 710 s for the second.

Going from CN(C)C(=O)c1cc2cnc(Nc3ccc(N4CCNCC4)cn3)nc2n1C1CCCC1 to CC(C)c1noc(-c2ccn3c(CC(=O)NC4CCCCCC4)nnc3c2)n1, the RP-LC retention time rises from 630 s to 823 s.

First: CC1(C(=O)N2CC=C(c3ccccc3)CC2)CCCCC(=O)N1 (stereo unspecified)
Second: CCN(CC)C(=O)c1cc2c(s1)CCC(C(=O)N1CCN(c3ccccn3)CC1)C2 (stereo unspecified)
The RP-LC retention time of the first is higher: 736 s for the first, 629 s for the second.

First: CCn1c(=O)n(CCc2ccccc2)c2cncnc21
Second: COc1ccc(Br)cc1S(=O)(=O)NCCc1ccccc1
The RP-LC retention time of the first is lower: 715 s for the first, 962 s for the second.

First: NS(=O)(=O)c1ccc2nc(NC(=O)C3=COCCO3)sc2c1
Second: COC(=O)c1cccc(NC(=O)c2c(O)c3cccnc3n(-c3ccc(F)cc3)c2=O)c1
The RP-LC retention time of the first is lower: 613 s for the first, 1190 s for the second.

First: Cc1ccc(-c2nnc(-c3nn(C)c4c3CN(S(=O)(=O)c3ccc(C(C)(C)C)cc3)CC4)o2)cc1
Second: O=C1NC(C(=O)NCCCn2cccn2)Cn2cccc21 (stereo unspecified)
The RP-LC retention time of the first is higher: 1210 s for the first, 585 s for the second.
